Experimental findings from ChEMBL document CHEMBL1158615, “Synthesis and biological evaluation of bicyclo[3.3.0] octane derivatives as dipeptidyl peptidase 4 inhibitors for the treatment of type 2 diabetes” (Bioorg Med Chem Lett, 2010) are described below.

For one assay, the target named is Dipeptidyl peptidase 4 (Homo sapiens, UniProt P27487).
A further assay relates to Mus musculus. Briefly: Antidiabetic activity in ICR mouse assessed as deduction of glucose excursion at 0.3 to 10 mg/kg, po administered 30 mins before oral glucose challenge measured up to 120 mins by oral glucose tolerance test. It counts as functional, organism-based.

Calls of active or inactive are those of the source. No cut-off for these calls is given here.

Sequence of Dipeptidyl peptidase 4 (P27487 whole entry): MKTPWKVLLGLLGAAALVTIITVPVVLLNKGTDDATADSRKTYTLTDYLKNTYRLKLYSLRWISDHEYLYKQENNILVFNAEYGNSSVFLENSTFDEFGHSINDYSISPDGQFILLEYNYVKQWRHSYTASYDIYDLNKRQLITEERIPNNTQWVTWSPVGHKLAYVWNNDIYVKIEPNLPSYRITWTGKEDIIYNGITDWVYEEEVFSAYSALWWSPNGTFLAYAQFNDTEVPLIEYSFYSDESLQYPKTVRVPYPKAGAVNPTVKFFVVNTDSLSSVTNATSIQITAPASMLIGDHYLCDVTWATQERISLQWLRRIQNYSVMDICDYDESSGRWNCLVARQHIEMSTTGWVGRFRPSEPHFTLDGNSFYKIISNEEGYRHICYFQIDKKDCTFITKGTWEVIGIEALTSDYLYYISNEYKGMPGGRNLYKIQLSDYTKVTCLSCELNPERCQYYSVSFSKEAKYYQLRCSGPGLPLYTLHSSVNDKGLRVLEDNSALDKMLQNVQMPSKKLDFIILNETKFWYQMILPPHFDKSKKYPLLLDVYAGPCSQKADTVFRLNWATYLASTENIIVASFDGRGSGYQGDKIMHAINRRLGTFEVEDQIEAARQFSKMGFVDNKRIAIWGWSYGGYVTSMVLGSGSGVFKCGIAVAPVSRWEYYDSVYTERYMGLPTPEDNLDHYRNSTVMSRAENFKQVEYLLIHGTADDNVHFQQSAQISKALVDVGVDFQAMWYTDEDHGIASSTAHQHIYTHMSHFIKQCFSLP
Description for Dipeptidyl peptidase 4: Inhibition of DPP4 by chemical luminescent assay

Broadly, the IC50 is the concentration at which inhibition is half-maximal. A low value points to greater potency in that assay. `CC(C)NC(=O)O[C@H]1C[C@H]2C[C@@H](NCC(=O)N3CCC[C@H]3C#N)C[C@H]2C1`: at Dipeptidyl peptidase 4, half-maximal inhibition (IC50) was put at 0.204 µM.
With `N#C[C@@H]1CCCN1C(=O)CN[C@H]1C[C@H]2C[C@@H](O)C[C@H]2C1`, the result with Mus musculus was Active.
Consider `CO[C@H]1C[C@H]2C[C@@H](NCC(=O)N3CCC[C@H]3C#N)C[C@H]2C1`, for which the outcome in the assay with Mus musculus was Active.
Take `CC(C)(C)NC(=O)O[C@H]1C[C@H]2C[C@@H](NCC(=O)N3CCC[C@H]3C#N)C[C@H]2C1`: the IC50 against Dipeptidyl peptidase 4 amounted to 0.326 µM.
Consider `N#C[C@@H]1CCCN1C(=O)CN[C@@H]1C[C@@H]2C[C@H](OC(=O)Nc3ccccc3)C[C@@H]2C1`, for which the IC50 on Dipeptidyl peptidase 4 worked out at 0.121 µM. Against the preceding compound, the IC50 is about 2.7-fold lower.
